In patent publication US9481676B2, “Azepino[4,5-B]indoles and methods of use” (Medivation Technologies, Inc., priority 2008, dated 2016) one finds inhibition data, which are given here for 17 compounds.

Molecules are shown by their SMILES.

Experiment [1] deals with T1, human recombinant histamine H1 receptor (Homo sapiens, UniProt P35367).
T1 construct: expressed in transfected cells; host or cells: CHO cells
Description: Histamine H1 radioligand binding ([3H]Pyrilamine). The conditions noted are these: compound at 1 μM; read-out: Histamine Binding (1 μM) H1, percent inhibition of specific binding. The essentials:
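Membranes from CHO cells expressing the receptor were incubated with compound and 1.2 nM [3H]pyrilamine for 180 min at 25 °C in 50 mM Tris-HCl pH 7.4 with MgCl2, NaCl and sucrose; 1 μM pyrilamine defined non-specific binding. Filter-bound radioactivity was counted.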

For experiment [2], the target named is T2, human recombinant histamine H2 receptor (Homo sapiens, UniProt P25021).
T2 construct: expressed in transfected cells; host or cells: CHO-K1 cells
T2 sequence (P25021 whole entry): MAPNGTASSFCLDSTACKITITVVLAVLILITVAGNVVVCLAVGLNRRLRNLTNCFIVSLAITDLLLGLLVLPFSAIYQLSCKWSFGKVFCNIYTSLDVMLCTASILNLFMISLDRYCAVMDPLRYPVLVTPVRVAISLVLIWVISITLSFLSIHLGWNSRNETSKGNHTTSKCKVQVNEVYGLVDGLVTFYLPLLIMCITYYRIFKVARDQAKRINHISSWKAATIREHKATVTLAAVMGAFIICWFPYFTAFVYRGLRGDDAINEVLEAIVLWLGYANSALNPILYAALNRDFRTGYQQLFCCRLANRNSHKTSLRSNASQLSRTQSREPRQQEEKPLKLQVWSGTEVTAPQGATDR
Description: Histamine H2 radioligand binding ([125I]Aminopotentidine). The conditions noted are these: compound at 1 μM; read-out: Histamine Binding (1 μM) H2, percent inhibition of specific binding. The essentials: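 Membranes from CHO-K1 cells expressing recombinant human H2 receptor, in 50 mM phosphate buffer pH 7.4, incubated with 0.1 nM [125I]aminopotentidine for 120 min at 25 °C; nonspecific binding defined with 3 μM tiotidine.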

Experiment [3] deals with T3, human recombinant adrenergic α2A receptor (Homo sapiens, UniProt P08913).
T3 construct: expressed in transfected cells; host or cells: insect Sf9 cells
T3 sequence (P08913 1-465): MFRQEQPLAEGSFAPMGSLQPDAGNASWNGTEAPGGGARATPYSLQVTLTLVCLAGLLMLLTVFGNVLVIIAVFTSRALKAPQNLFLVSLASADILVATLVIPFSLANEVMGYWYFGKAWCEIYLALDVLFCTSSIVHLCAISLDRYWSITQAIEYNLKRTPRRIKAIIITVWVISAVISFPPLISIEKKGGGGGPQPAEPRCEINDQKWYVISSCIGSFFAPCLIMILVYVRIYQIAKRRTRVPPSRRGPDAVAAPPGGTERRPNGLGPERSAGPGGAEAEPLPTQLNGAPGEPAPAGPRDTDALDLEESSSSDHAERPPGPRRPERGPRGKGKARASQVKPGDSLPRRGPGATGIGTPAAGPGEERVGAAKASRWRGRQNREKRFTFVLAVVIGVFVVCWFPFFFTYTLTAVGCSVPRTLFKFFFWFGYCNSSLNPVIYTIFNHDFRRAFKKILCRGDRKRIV
Description: Adrenergic alpha2A radioligand binding ([3H]MK-912). The following applies: compound at 1 μM; read-out: Adrenergic (1 μM) α2A, percent inhibition of specific binding. The essentials:
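Membranes of Sf9 cells expressing human recombinant α2A receptor were incubated with compound and 1 nM [3H]MK-912 for 60 min at 25 °C in 50 mM Tris-HCl pH 7.4, 12.5 mM MgCl2, 2 mM EDTA. Nonspecific binding: 10 μM WB-4101.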

Experiment [4] concerns the target T4, human recombinant dopamine D2L receptor (Homo sapiens, UniProt P14416).
T4 construct: expressed in transfected cells; host or cells: CHO cells
Description: Dopamine D2L radioligand binding ([3H]Spiperone). The conditions noted are these: compound at 1 μM; read-out: Dopamine (1 μM) D2L, percent inhibition of specific binding. The essentials:
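Human recombinant D2L receptor from CHO cells, in Tris-HCl buffer pH 7.4 with ascorbic acid, BSA and 150 mM NaCl; compounds at 1 μM or lower (1% DMSO) incubated with 0.16 nM [3H]spiperone, 120 min, 25° C. Nonspecific binding by 10 μM haloperidol; filter counting; % inhibition of specific binding.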

For experiment [5], the target named is T5, human recombinant serotonin (5-Hydroxytryptamine) 5-HT6 receptor (Homo sapiens, UniProt P50406).
T5 construct: expressed in transfected cells; host or cells: human HeLa cells
T5 sequence (P50406 whole entry): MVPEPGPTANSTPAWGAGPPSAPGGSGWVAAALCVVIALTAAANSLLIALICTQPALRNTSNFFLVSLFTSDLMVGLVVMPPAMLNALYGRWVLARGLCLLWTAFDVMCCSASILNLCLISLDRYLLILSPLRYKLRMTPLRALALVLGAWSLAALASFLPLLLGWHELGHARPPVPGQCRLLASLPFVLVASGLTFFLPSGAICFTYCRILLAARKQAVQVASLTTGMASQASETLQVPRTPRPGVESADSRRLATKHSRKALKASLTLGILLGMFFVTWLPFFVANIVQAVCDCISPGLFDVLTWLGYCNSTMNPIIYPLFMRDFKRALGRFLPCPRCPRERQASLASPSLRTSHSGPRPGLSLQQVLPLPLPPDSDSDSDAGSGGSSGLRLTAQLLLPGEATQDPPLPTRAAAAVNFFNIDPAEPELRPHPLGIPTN
Description: Serotonin 5-HT6 radioligand binding ([3H]LSD). The conditions noted are these: compound at 1 μM; read-out: Serotonin (1 μM) 5-HT6, percent inhibition of specific binding. The method, boiled down:
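Human recombinant 5-HT6 receptor from HeLa cells incubated with 1.5 nM [3H]LSD for 120 min at 37° C in 50 mM Tris-HCl pH 7.4, 150 mM NaCl, 2 mM ascorbic acid, 0.001% BSA. Nonspecific binding defined with 5 μM serotonin; bound ligand counted after filtration.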

The inhibition is the change of the read-out against control, counted positive when it falls.

T4 sequence (P14416 whole entry): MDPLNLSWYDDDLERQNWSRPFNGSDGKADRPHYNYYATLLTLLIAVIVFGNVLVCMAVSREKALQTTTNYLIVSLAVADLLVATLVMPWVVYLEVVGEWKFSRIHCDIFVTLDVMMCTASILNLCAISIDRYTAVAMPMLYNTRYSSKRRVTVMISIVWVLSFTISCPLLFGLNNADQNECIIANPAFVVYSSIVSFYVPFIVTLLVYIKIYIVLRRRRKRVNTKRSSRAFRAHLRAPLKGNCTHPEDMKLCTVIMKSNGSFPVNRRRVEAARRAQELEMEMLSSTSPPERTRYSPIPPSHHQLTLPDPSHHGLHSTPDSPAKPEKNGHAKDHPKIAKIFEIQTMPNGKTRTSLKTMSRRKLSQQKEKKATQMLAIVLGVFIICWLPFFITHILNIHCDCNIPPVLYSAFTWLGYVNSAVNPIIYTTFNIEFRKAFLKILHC
T1 sequence (P35367 whole entry): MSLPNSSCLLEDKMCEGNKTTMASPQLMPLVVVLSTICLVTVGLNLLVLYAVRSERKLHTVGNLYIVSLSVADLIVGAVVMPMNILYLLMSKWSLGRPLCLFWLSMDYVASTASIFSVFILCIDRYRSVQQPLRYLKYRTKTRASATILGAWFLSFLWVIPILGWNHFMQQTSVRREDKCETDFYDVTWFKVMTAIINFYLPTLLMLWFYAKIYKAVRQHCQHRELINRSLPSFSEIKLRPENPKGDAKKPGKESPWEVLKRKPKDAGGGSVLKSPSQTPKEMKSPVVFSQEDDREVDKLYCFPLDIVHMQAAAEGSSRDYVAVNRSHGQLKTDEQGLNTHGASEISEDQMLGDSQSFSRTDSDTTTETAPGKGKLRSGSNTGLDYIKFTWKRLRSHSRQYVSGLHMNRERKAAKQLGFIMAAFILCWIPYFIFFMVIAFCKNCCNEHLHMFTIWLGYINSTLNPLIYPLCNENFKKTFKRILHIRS

With `C/C(=C\n1c2c(c3cc(Cl)ccc31)CCN(C)CC2)c1ccc(Cl)cc1` [Compound No. 36, 9-chloro-6-((E)-2-(4-chlorophenyl)prop-1-enyl)-1,2,3,4,5,6-hexahydro-3-methylazepino[4,5-b]indole], the inhibition at 1 µM in experiment [1] was found to be 88%; in experiment [2], 104%; in experiment [3] it was 96%; in experiment [4], 34%; in experiment [5], 99%.
For `CN1CCc2c(n(CC(O)c3cccnc3)c3ccc(Cl)cc23)CC1` (stereo not shown) [Compound No. 18, 2-(9-chloro-2,3,4,5-tetrahydro-3-methylazepino[4,5-b]indol-6(1H)-yl)-1-(pyridin-3-yl)ethanol], in that order: 98%, 51%, 92%, 3% and 60%.
As to `Cc1ccc2c(c1)c1c(n2CC(O)c2ccc(Cl)cc2)CCN(C)CC1` (stereo not shown) [Compound No. 17, 1-(4-chlorophenyl)-2-(2,3,4,5-tetrahydro-3,9-dimethylazepino[4,5-b]indol-6(1H)-yl)ethanol], the inhibition at 1 µM was 101% in experiment [1]; 84% in experiment [2]; 105% in experiment [3]; 34% in experiment [4]; 80% in experiment [5].
The like results for `CN1CCc2c(n(/C=C/c3ccc(F)c(F)c3)c3ccc(Cl)cc23)CC1` [Compound No. 236, (E)-9-chloro-6-(3,4-difluorostyryl)-3-methyl-1,2,3,4,5,6-hexahydroazepino[4,5-b]indole] were, in that order, 99%, 97%, 89%, 34% and 102%.
For `Cc1ccc2c(c1)c1c(n2/C=C/c2ccccc2F)CCN(C)CC1` [Compound No. 233, (E)-6-(2-fluorostyryl)-3,9-dimethyl-1,2,3,4,5,6-hexahydroazepino[4,5-b]indole], in that order: 98%, 94%, 97%, 73% and 103%.
For `CN1CCc2c(n(CC(=O)N3CCCCC3)c3ccc(Cl)cc23)CC1` [Compound No. 57, 2-(9-chloro-2,3,4,5-tetrahydro-3-methylazepino[4,5-b]indol-6(1H)-yl)-1-(piperidin-1-yl)ethanone], in that order: 8%, 1%, -1%, 10% and -1%.
For the compound `Cc1ccc2c(c1)c1c(n2CCc2ccccc2F)CCN(C)CC1` [Compound No. 63, 6-(2-fluorophenethyl)-1,2,3,4,5,6-hexahydro-3,9-dimethylazepino[4,5-b]indole], the inhibition at 1 µM turned out to be 99% in experiment [1]; 83% in experiment [2]; 96% in experiment [3]; 61% in experiment [4]; 101% in experiment [5].
The like results for `COc1ccc(C(O)Cn2c3c(c4cc(C)ccc42)CCN(C)CC3)c(F)c1` (stereo not shown) [Compound No. 50, 1-(2-fluoro-4-methoxyphenyl)-2-(2,3,4,5-tetrahydro-3,9-dimethylazepino[4,5-b]indol-6(1H)-yl)ethanol] were, in that order, 98%, 65%, 94%, 34% and 88%.
For `Cc1ccc2c(c1)c1c(n2CCc2ccc(C(F)(F)F)nc2)CCN(C)CC1` [Compound No. 20, 6-(2-(6-(trifluoromethyl)pyridin-3-yl)ethyl)-1,2,3,4,5,6-hexahydro-3,9-dimethylazepino[4,5-b]indole], in that order: 99%, 37%, 68%, 13% and 46%.
The like results for `C/C(=C\n1c2c(c3cc(C)ccc31)CCN(C)CC2)c1ccc(F)cc1` [Compound No. 34, 6-((E)-2-(4-fluorophenyl)prop-1-enyl)-1,2,3,4,5,6-hexahydro-3,9-dimethylazepino[4,5-b]indole] were, in that order, 95%, 103%, 94%, 90% and 103%.
Turning to `Cc1ccc2c(c1)c1c(n2C(=O)Cc2ccc(F)cc2)CCN(C)CC1` [Compound No. 285, 1-(3,9-dimethyl-2,3,4,5-tetrahydroazepino[4,5-b]indol-6(1H)-yl)-2-(4-fluorophenyl) ethanone], the inhibition at 1 µM is 68% in experiment [1]; 74% in experiment [2]; 91% in experiment [3]; 21% in experiment [4]; 94% in experiment [5].
The like results for `Cc1ccc2c(c1)c1c(n2CCc2ccccc2)CCN(C)CC1` [Compound No. 62, 1,2,3,4,5,6-hexahydro-3,9-dimethyl-6-phenethylazepino[4,5-b]indole] were, in that order, 98%, 79%, 11%, 7% and -4%.
The like results for `Cc1ccc(C(O)Cn2c3c(c4cc(Cl)ccc42)CCN(C)CC3)cn1` (stereo not shown) [Compound No. 7, 2-(9-chloro-2,3,4,5-tetrahydro-3-methylazepino[4,5-b]indol-6(1H)-yl)-1-(6-methylpyridin-3-yl)ethanol] were, in that order, 101%, 52%, 84%, 15% and 36%.
The like results for `CN1CCc2c(n(CC(C)(O)c3ccc(Cl)cc3)c3ccc(Cl)cc23)CC1` (stereo not shown) [Compound No. 12, 1-(9-chloro-2,3,4,5-tetrahydro-3-methylazepino[4,5-b]indol-6(1H)-yl)-2-(4-chlorophenyl)propan-2-ol] were, in that order, 99%, 98%, 101%, 45% and 83%.
Take `CN1CCc2c(n(CCc3cncc(Cl)c3)c3ccc(Cl)cc23)CC1` [Compound No. 10, 9-chloro-6-(2-(5-chloropyridin-3-yl)ethyl)-1,2,3,4,5,6-hexahydro-3-methylazepino[4,5-b]indole]: the inhibition at 1 µM in experiment [1] worked out at 101%; in experiment [2], 78%; in experiment [3], 96%; in experiment [4], 35%; in experiment [5], 97%.
For the compound `CN1CCc2c(n(CC(=O)N3CCNCC3)c3ccc(Cl)cc23)CC1` [Compound No. 72, 2-(9-chloro-2,3,4,5-tetrahydro-3-methylazepino[4,5-b]indol-6(1H)-yl)-1-(piperazin-1-yl)ethanone], the inhibition at 1 µM in experiment [1] was -12%; in experiment [2] it was 0%; in experiment [3], -6%; in experiment [4], -18%; in experiment [5], 39%.
The like results for `Cc1ccc2c(c1)c1c(n2/C=C/c2ccccc2)CCN(C)CC1` [Compound No. 229, (E)-3,9-dimethyl-6-styryl-1,2,3,4,5,6-hexahydroazepino[4,5-b]indole] were, in that order, 100%, 94%, 100%, 68% and 102%.
